Assay: Effect of pH on stability of tigecycline 0.50 mg/ml in Normal Saline, in a flask at 25° C.
Assay type: physicochemical
Procedure: The effect of pH on the stability of tigecycline formulations having a concentration of 0.50 mg tigecycline/ml in a Normal Saline solution was studied by analyzing the variation of tigecycline content, total impurity content, and the concentration of tigecycline epimer at different pH values, either in the presence of air or under an atmosphere having an oxygen content of less than 1 ppm, in a flask at 25° C.

[1] = pH 4.5, 72 h, in the presence of air
[2] = pH 5.0, 0 h, in the presence of air
[3] = pH 5.0, 24 h, in the presence of air
[4] = pH 5.0, 72 h, in the presence of air
[5] = pH 5.5, 0 h, in the presence of air
[6] = pH 5.5, 24 h, in the presence of air
[7] = pH 5.5, 72 h, in the presence of air
[8] = pH 6.5, 0 h, in the presence of air
[9] = pH 6.5, 8 h, in the presence of air
[10] = pH 6.5, 24 h, in the presence of air
[11] = pH 6.5, 72 h, in the presence of air
[12] = pH 8.0, 0 h, in the presence of air
[13] = pH 8.0, 8 h, in the presence of air
[14] = pH 8.0, 24 h, in the presence of air
[15] = pH 8.0, 72 h, in the presence of air

CN(C)c1cc(NC(=O)CNC(C)(C)C)c(O)c2c1C[C@H]1C[C@H]3[C@H](N(C)C)C(O)=C(C(N)=O)C(=O)[C@@]3(O)C(O)=C1C2=O [tigecycline, Tigecycline]
Percentage of tigecycline remaining (pH 4.5, 24 h, oxygen <1 ppm): 99.72% | Total impurity content as a % of initial weight of tigecycline (pH 4.5, 24 h, oxygen <1 ppm): 0.682% | Total tigecycline epimer content as a % of initial weight of tigecycline (pH 4.5, 24 h, oxygen <1 ppm): 0.547% | Percentage of tigecycline remaining [1]: 97% | Total impurity content as a % of initial weight of tigecycline [1]: 2.625% | Total tigecycline epimer content as a % of initial weight of tigecycline [1]: 1.95% | Percentage of tigecycline remaining (pH 4.5, 72 h, oxygen <1 ppm): 98.50% | Total impurity content as a % of initial weight of tigecycline (pH 4.5, 72 h, oxygen <1 ppm): 2.365% | Total tigecycline epimer content as a % of initial weight of tigecycline (pH 4.5, 72 h, oxygen <1 ppm): 1.934% | Percentage of tigecycline remaining [2]: 100% | Total impurity content as a % of initial weight of tigecycline [2]: 0.29% | Total tigecycline epimer content as a % of initial weight of tigecycline [2]: 0.167% | Percentage of tigecycline remaining [3]: 101% | Total impurity content as a % of initial weight of tigecycline [3]: 0.691% | Total tigecycline epimer content as a % of initial weight of tigecycline [3]: 0.49% | Percentage of tigecycline remaining [4]: 99% | Total impurity content as a % of initial weight of tigecycline [4]: 2.632% | Total tigecycline epimer content as a % of initial weight of tigecycline [4]: 1.69% | Percentage of tigecycline remaining [5]: 100% | Total impurity content as a % of initial weight of tigecycline [5]: 0.31% | Total tigecycline epimer content as a % of initial weight of tigecycline [5]: 0.162% | Percentage of tigecycline remaining [6]: 99% | Total impurity content as a % of initial weight of tigecycline [6]: 0.865% | Total tigecycline epimer content as a % of initial weight of tigecycline [6]: 0.52% | Percentage of tigecycline remaining [7]: 97% | Total impurity content as a % of initial weight of tigecycline [7]: 3.221% | Total tigecycline epimer content as a % of initial weight of tigecycline [7]: 1.31% | Percentage of tigecycline remaining [8]: 100% | Total impurity content as a % of initial weight of tigecycline [8]: 0.31% | Total tigecycline epimer content as a % of initial weight of tigecycline [8]: 0.15% | Percentage of tigecycline remaining (pH 6.5, 0 h, oxygen <1 ppm): 100.0% | Total impurity content as a % of initial weight of tigecycline (pH 6.5, 0 h, oxygen <1 ppm): 0.224% | Total tigecycline epimer content as a % of initial weight of tigecycline (pH 6.5, 0 h, oxygen <1 ppm): 0.111% | Percentage of tigecycline remaining [9]: 100% | Total impurity content as a % of initial weight of tigecycline [9]: 0.602% | Total tigecycline epimer content as a % of initial weight of tigecycline [9]: 0.26% | Percentage of tigecycline remaining (pH 6.5, 8 h, oxygen <1 ppm): 100.56% | Total impurity content as a % of initial weight of tigecycline (pH 6.5, 8 h, oxygen <1 ppm): 0.399% | Total tigecycline epimer content as a % of initial weight of tigecycline (pH 6.5, 8 h, oxygen <1 ppm): 0.188% | Percentage of tigecycline remaining [10]: 100% | Total impurity content as a % of initial weight of tigecycline [10]: 1.429% | Total tigecycline epimer content as a % of initial weight of tigecycline [10]: 0.43% | Percentage of tigecycline remaining (pH 6.5, 24 h, oxygen <1 ppm): 99.59% | Total impurity content as a % of initial weight of tigecycline (pH 6.5, 24 h, oxygen <1 ppm): 0.812% | Total tigecycline epimer content as a % of initial weight of tigecycline (pH 6.5, 24 h, oxygen <1 ppm): 0.45% | Percentage of tigecycline remaining [11]: 86% | Total impurity content as a % of initial weight of tigecycline [11]: 11.78% | Total tigecycline epimer content as a % of initial weight of tigecycline [11]: 1.08% | Percentage of tigecycline remaining (pH 6.5, 72 h, oxygen <1 ppm): 98.03% | Total impurity content as a % of initial weight of tigecycline (pH 6.5, 72 h, oxygen <1 ppm): 2.654% | Total tigecycline epimer content as a % of initial weight of tigecycline (pH 6.5, 72 h, oxygen <1 ppm): 1.532% | Percentage of tigecycline remaining [12]: 100% | Total impurity content as a % of initial weight of tigecycline [12]: 0.30% | Total tigecycline epimer content as a % of initial weight of tigecycline [12]: 0.14% | Percentage of tigecycline remaining (pH 8.0, 0 h, oxygen <1 ppm): 100.0% | Total impurity content as a % of initial weight of tigecycline (pH 8.0, 0 h, oxygen <1 ppm): 0.22% | Total tigecycline epimer content as a % of initial weight of tigecycline (pH 8.0, 0 h, oxygen <1 ppm): 0.107% | Percentage of tigecycline remaining [13]: 100% | Total impurity content as a % of initial weight of tigecycline [13]: 0.924% | Total tigecycline epimer content as a % of initial weight of tigecycline [13]: 0.27% | Percentage of tigecycline remaining (pH 8.0, 8 h, oxygen <1 ppm): 100.81% | Total impurity content as a % of initial weight of tigecycline (pH 8.0, 8 h, oxygen <1 ppm): 0.443% | Total tigecycline epimer content as a % of initial weight of tigecycline (pH 8.0, 8 h, oxygen <1 ppm): 0.192% | Percentage of tigecycline remaining [14]: 95% | Total impurity content as a % of initial weight of tigecycline [14]: 3.737% | Total tigecycline epimer content as a % of initial weight of tigecycline [14]: 0.43% | Percentage of tigecycline remaining (pH 8.0, 24 h, oxygen <1 ppm): 99.64% | Total impurity content as a % of initial weight of tigecycline (pH 8.0, 24 h, oxygen <1 ppm): 1.214% | Total tigecycline epimer content as a % of initial weight of tigecycline (pH 8.0, 24 h, oxygen <1 ppm): 0.425% | Percentage of tigecycline remaining [15]: 57% | Total impurity content as a % of initial weight of tigecycline [15]: 29.654% | Total tigecycline epimer content as a % of initial weight of tigecycline [15]: 1.23% | Percentage of tigecycline remaining (pH 8.0, 72 h, oxygen <1 ppm): 95.98% | Total impurity content as a % of initial weight of tigecycline (pH 8.0, 72 h, oxygen <1 ppm): 3.461% | Total tigecycline epimer content as a % of initial weight of tigecycline (pH 8.0, 72 h, oxygen <1 ppm): 1.516%

From patent publication US20120277197A1, “TIGECYCLINE FORMULATIONS” (WYETH, priority 2008, published 2012)
